Drawing on US11319328B2 (priority 2017, dated 2022), this text covers IC50 for 21 molecules.

Assay in all cases: cells
Type in all cases: cell-based

Experiment [1] deals with Hepatoma HepG2. The note with it: cultured 48 h, MTT. How it is done:
(§1) A cell strain: Hepatoma HepG2, cervical cancer Hela, lung cancer A549, breast cancer MCF7 cell line and human normal liver cell HL7702 were purchased from Wuhan Boster Biological Technology Co., Ltd.;
(§2) HepG2, Hela, A549, MCF 7 cells in logarithmic growth phase and human normal hepatocytes HL7702 were centrifuged at 1500 rpm for 5 min, and the supernatant was discarded; the cells were digested with a suitable amount of trypsin, and then suspended with a suitable amount of culture medium (HepG2, Hela and HL7702 cells were suspended with penicillin-streptomycin RPMI1640 culture medium containing 10% calf serum, A549 and MCF 7 cells with penicillin-streptomycin high glucose DMEM culture medium containing 10% calf serum, to adjust the cell concentration to 1.5×10^4 cells/well, the cells were seeded in 96-well plates, and the following experimental groups were set:
(§3) 0.10 mL of the cell suspension was added to each well, and incubated at 37° C., 5% CO2 and saturated humidity for 12 h, and the culture medium was discarded when the cell density was nearly 70%. […] 100 μl of 5 mg/ml MTT was added per well, standing for 4 h at 37° C. 100 μl of DMSO was added to each well, followed by shaking on a shaker for 10 min at 37° C., the absorbance (OD) was measured at 492 nm, and the MTT ratio was calculated as the OD value of drug group/OD value of negative control group.

Experiment [2] concerns breast cancer MCF7 cell line. Conditions: cultured 48 h, MTT. How it is done:
as §1, §2, §3

The subject of experiment [3] is cervical cancer Hela. The note with it: cultured 48 h, MTT. How it is done:
as §1, §2, §3

Experiment [4] deals with human normal liver cell HL7702. The note with it: human normal hepatocytes HL7702, cultured 48 h, MTT. Here is the method: as §1, §2, §3
For experiment [5], the system named is lung cancer A549. The note with it: cultured 48 h, MTT. Here is the method: as §1, §2, §3

`COc1cc(C2c3cc4c(cc3C(Nc3ccc5cc[nH]c5c3)C3COC(=O)C23)OCO4)cc(OC)c1OC` (stereo not drawn) [Compound 16, 4β-NH-(6-aminoindole) podophyllotoxin]: the concentration for half-maximal inhibition (IC50) – broadly, the point on the concentration scale where inhibition reaches its midpoint – was 0.6 ± 0.01 µM in experiment [1]; 0.3 ± 0.01 µM in experiment [2]; 0.4 ± 0.01 µM in experiment [3]; 140 µM in experiment [4]; 0.2 ± 0.02 µM in experiment [5].

Take `COc1cc(C2c3cc4c(cc3C(Nc3ccc5ncccc5c3)C3COC(=O)C23)OCO4)cc(OC)c1OC` (stereo not drawn) [Compound 7, 4β-NH-(6-aminoquinoline) podophyllotoxin]: the IC50 in experiment [1] is 0.8 ± 0.01 µM; in experiment [2], 0.6 ± 0.03 µM; in experiment [3], 0.7 ± 0.03 µM; in experiment [4], > 100 µM; in experiment [5], 0.3 ± 0.04 µM.

For the molecule `COc1cc(C2c3cc4c(cc3C(Nc3cccc5cnccc35)C3COC(=O)C23)OCO4)cc(OC)c1O` (stereo not drawn) [Compound 28, 4β-NH-(5-aminoisoquinoline)-4′-demethylepipodophyllotoxin], the IC50 in experiment [1] was 2.8 ± 1.6 µM; in experiment [2] it was 2.5 ± 0.9 µM; in experiment [3] it was 1.9 ± 0.9 µM; in experiment [4], 19.8 ± 2.1 µM; in experiment [5] it was 1.4 ± 0.6 µM.

On to `COc1cc([C@@H]2c3cc4c(cc3[C@@H](Nc3ccc5c(c3N)C(=O)c3ccccc3C5=O)[C@@H]3COC(=O)[C@H]23)OCO4)cc(OC)c1OC` [Compound 3, 4β-NH-(1,2-diaminoanthraquinone) podophyllotoxin], for which the IC50 was 52 ± 8.4 µM in experiment [1]; 17.5 ± 2.1 µM in experiment [2]; 24.6 ± 3.2 µM in experiment [3]; > 100 µM in experiment [4]; > 100 µM in experiment [5].

In the case of `COc1cc([C@@H]2c3cc4c(cc3[C@@H](Nc3ccc5c(c3)C(=O)c3ccc(N)cc3C5=O)[C@@H]3COC(=O)[C@H]23)OCO4)cc(OC)c1OC` [Compound 5, 4β-NH-(2,6-diaminoanthraquinone) podophyllotoxin], the IC50 is 9.1 ± 1.2 µM in experiment [1]; > 100 µM in experiment [2]; 6.5 ± 0.5 µM in experiment [3]; > 100 µM in experiment [4]; > 100 µM in experiment [5].

Regarding `COc1cc([C@@H]2c3cc4c(cc3[C@@H](Nc3ccc5c(c3)C(=O)c3ccccc3C5=O)[C@@H]3COC(=O)[C@H]23)OCO4)cc(OC)c1O` [Compound 21, 4β-NH-(2-aminoanthraquinone)-4′-demethylepipodophyllotoxin], the IC50 was 1.1 ± 0.4 µM in experiment [1]; 4 ± 0.5 µM in experiment [2]; 1.9 ± 0.3 µM in experiment [3]; 55.4 ± 6.2 µM in experiment [4]; > 100 µM in experiment [5].

In the case of `COc1cc(C2c3cc4c(cc3C(Nc3cccc5cc[nH]c35)C3COC(=O)C23)OCO4)cc(OC)c1O` (stereo not drawn) [Compound 36, 4β-NH-(7-aminoindole)-4′-demethylepipodophyllotoxin], the IC50 in experiment [1] amounted to 15.4 ± 2.2 µM; in experiment [2] it was 8 ± 5.5 µM; in experiment [3], 15.4 ± 6.1 µM; in experiment [4], 31.5 ± 3.2 µM; in experiment [5], 19.5 ± 1.5 µM.

With `COc1cc(C2c3cc4c(cc3C(Nc3ccc5cn[nH]c5c3)C3COC(=O)C23)OCO4)cc(OC)c1OC` (stereo not drawn) [Compound 13, 4β-NH-(6-indazolamine) podophyllotoxin], the IC50 came to 1.8 ± 0.2 µM in experiment [1]; 1.3 ± 0.2 µM in experiment [2]; 2.1 ± 0.3 µM in experiment [3]; 33.6 ± 1.5 µM in experiment [4]; 2.4 ± 0.2 µM in experiment [5].

For `COc1cc(C2c3cc4c(cc3C(Nc3cccc5c3C(=O)c3cccc(N)c3C5=O)C3COC(=O)C23)OCO4)cc(OC)c1OC` (stereo not drawn) [Compound 4, 4β-NH-(1,5-diaminoanthraquinone) podophyllotoxin], the IC50 was 4.7 ± 0.4 µM in experiment [1]; 3.4 ± 0.6 µM in experiment [2]; 4.6 ± 0.2 µM in experiment [3]; > 100 µM in experiment [4]; 2.2 ± 0.3 µM in experiment [5].

As for `COc1cc(C2c3cc4c(cc3C(Nc3ccc5[nH]ncc5c3)C3COC(=O)C23)OCO4)cc(OC)c1O` (stereo not drawn) [Compound 31, 4β-NH-(5-indazolamine)-4′-demethylepipodophyllotoxin], the IC50 is 6.8 ± 1.5 µM in experiment [1]; 3.5 ± 0.3 µM in experiment [2]; 4.3 ± 0.9 µM in experiment [3]; > 100 µM in experiment [4]; 1.7 ± 0.3 µM in experiment [5].

As for `COc1cc(C2c3cc4c(cc3C(Nc3ccccc3-c3nc5ccccc5[nH]3)C3COC(=O)C23)OCO4)cc(OC)c1O` (stereo not drawn) [Compound 37, 4β-NH-(2-(2-aminophenyl)benzimidazole)-4′-demethylepipodophyllotoxin], the IC50 in experiment [1] was > 100 µM; in experiment [2], > 100 µM; in experiment [3] it was 48.6 ± 6.2 µM; in experiment [4], > 100 µM; in experiment [5], > 100 µM.

Consider `COc1cc(C2c3cc4c(cc3C(Nc3ccc5c(c3)C(=O)c3ccccc3C5=O)C3COC(=O)C23)OCO4)cc(OC)c1OC` (stereo not drawn) [Compound 2, 4β-NH-(2-aminoanthraquinone) podophyllotoxin], for which the IC50 in experiment [1] was 9.6 ± 0.8 µM; in experiment [2] it was 2.9 ± 0.1 µM; in experiment [3] it was 2.5 ± 0.3 µM; in experiment [4], > 100 µM; in experiment [5], 2.9 ± 0.4 µM.

On to `COc1cc(C2c3cc4c(cc3C(Nc3ccc5[nH]ccc5c3)C3COC(=O)C23)OCO4)cc(OC)c1OC` (stereo not drawn) [Compound 15, 4β-NH-(5-aminoindole) podophyllotoxin], for which the IC50 amounted to 2.5 ± 0.6 µM in experiment [1]; 4.8 ± 0.9 µM in experiment [2]; 3.8 ± 0.2 µM in experiment [3]; 30.5 ± 2.7 µM in experiment [4]; 2.2 ± 0.9 µM in experiment [5].

For `COc1cc([C@@H]2c3cc4c(cc3[C@@H](Nc3cccc5ccc(C)nc35)[C@@H]3COC(=O)[C@H]23)OCO4)cc(OC)c1OC` [Compound 11, 4β-NH-(8-aminoquinaldine) podophyllotoxin], the IC50 was 1.6 ± 0.1 µM in experiment [1]; 1 ± 0.2 µM in experiment [2]; 1.5 ± 0.1 µM in experiment [3]; > 100 µM in experiment [4]; 3 ± 0.4 µM in experiment [5].

For `COc1cc([C@@H]2c3cc4c(cc3[C@@H](Nc3nc(N)nc5ccccc35)[C@@H]3COC(=O)[C@H]23)OCO4)cc(OC)c1O` [Compound 25, 4β-NH-(2,4-quinazolinediamine)-4′-demethylepipodophyllotoxin], the IC50 in experiment [1] was determined as 9.8 ± 1.7 µM; in experiment [2] it was 6.1 ± 1.3 µM; in experiment [3], 3.6 ± 0.9 µM; in experiment [4], 16.9 ± 2.5 µM; in experiment [5] it was 3.6 ± 0.8 µM.

`COc1cc(C2c3cc4c(cc3C(Nc3ccccc3-c3nc5ccccc5[nH]3)C3COC(=O)C23)OCO4)cc(OC)c1OC` (stereo not drawn) [Compound 18, 4β-NH-(2-(2-aminophenyl)benzimidazole)-podophyllotoxin]: the IC50 in experiment [1] is 3.6 ± 0.3 µM; in experiment [2], 1.7 ± 0.2 µM; in experiment [3], 4.8 ± 0.2 µM; in experiment [4], > 100 µM; in experiment [5], 2.8 ± 0.1 µM.

As to `COc1cc([C@@H]2c3cc4c(cc3[C@@H](Nc3cccc5cc[nH]c35)[C@@H]3COC(=O)[C@H]23)OCO4)cc(OC)c1OC` [Compound 17, 4β-NH-(7-aminoindole) podophyllotoxin], the IC50 was found to be 1.9 ± 0.2 µM in experiment [1]; 0.8 ± 0.1 µM in experiment [2]; 0.8 ± 0.1 µM in experiment [3]; 38.4 ± 2.6 µM in experiment [4]; 1 ± 0.1 µM in experiment [5].

In the case of `COc1cc([C@@H]2c3cc4c(cc3[C@@H](O[C@@H]3O[C@@H]5CO[C@@H](C)O[C@H]5[C@H](O)[C@H]3O)[C@H]3COC(=O)[C@H]23)OCO4)cc(OC)c1O` [Etoposide, etoposide, reference compound], the IC50 was found to be 20 ± 1.3 µM in experiment [1] (Homo sapiens); 53.8 ± 5.6 µM in experiment [2] (Homo sapiens); 21.4 ± 1.6 µM in experiment [3] (Homo sapiens); 24.6 ± 3.8 µM in experiment [4] (L02); 22.5 ± 1.8 µM in experiment [5] (Homo sapiens).

On to “4β-NH-(6-indazolamine)-4′-demethylepipodophyllotoxin [Compound 32]”, for which the IC50 in experiment [1] was 19.4 ± 1.5 µM; in experiment [2], 21.4 ± 5.9 µM; in experiment [3], 6.4 ± 1.8 µM; in experiment [4] it was 17.7 ± 2.2 µM; in experiment [5], 25.6 ± 3.7 µM.

Take `COc1cc([C@@H]2c3cc4c(cc3[C@@H](Nc3cccc5cn[nH]c35)[C@@H]3COC(=O)[C@H]23)OCO4)cc(OC)c1OC` [Compound 14, 4β-NH-(7-indazolamine) podophyllotoxin]: the IC50 in experiment [1] was 0.9 ± 0.1 µM; in experiment [2] it was 0.4 ± 0.01 µM; in experiment [3] it was 0.9 ± 0.01 µM; in experiment [4], 43.3 ± 2.8 µM; in experiment [5] it was 0.5 ± 0.01 µM.

`COc1cc(C2c3cc4c(cc3C(Nc3cccc5cnccc35)C3COC(=O)C23)OCO4)cc(OC)c1OC` (stereo not drawn) [Compound 9, 4β-NH-(5-aminoisoquinoline) podophyllotoxin]: the IC50 turned out to be 4.1 ± 1.1 µM in experiment [1]; 1.4 ± 0.3 µM in experiment [2]; 3.1 ± 0.2 µM in experiment [3]; 16.3 ± 2.8 µM in experiment [4]; 2.3 ± 0.1 µM in experiment [5].
